According to patent US9198890B2, “Compositions and methods for treating and preventing coronary heart disease” (priority 2011, dated 2015):
Where “and” joins values, the source holds several entries; their conditions need not be identical. Equal entries are not always repeated.

Key:
LDL-C [1] = experiment: PROSPER study: lipid (LDL-C, HDL-C, triglyceride) response to Pravastatin 40 mg/day, overall and by SLCO1B1/LXRA genotype; type: in vivo, human; details: for Adjusted mean percent LDL-cholesterol reduction: mean ± S.D.
Description: The effect of SNPs at nucleotide positions 388 (e.g. A>G) and 625 (e.g. T>C) of the SLCO1B1 gene and also at nucleotide position −115 (e.g. G>A) of the LXRA gene on responsiveness to Pravastatin in subjects of various genotypes was assessed by analyzing the correlation of different SNP genotypes with the 6 month and 12 month changes in TC and LDL-C levels in treated subjects, as shown below in Table 5. Neither the presence of the LXRA SNP at nucleotide position −115 nor the SLCO1B1 SNP at nucleotide position 388 were associated with lipid lowering. […] The percentage reductions in LDL-C given are for the 6 month time point (Table 5).
Biochemical and DNA analysis: Total cholesterol (TC), HDL-C, and triglycerides were assessed in subjects after an overnight fast at 6 months, and at 12 months, and LDL-C was calculated by the Friedewald formula, as previously described (Shepherd J et al. (2002) Lancet 360:1623-30). Apolipoprotein B (apoB) was measured only at baseline as described. DNA was isolated from cells from this cohort, and DNA from 5,783 subjects participating in this study was also available. ApoE phenotype was determined on plasma samples by Western blotting, using the method of Havekes et al. in the central laboratory of the Royal Infirmary in Glasgow, Scotland (Havekes L M et al. A rapid micro method for apolipoprotein E phenotyping directly in serum. J Lipid Res (1987) 28:455-63). Subjects were classified according to the presence of apoE2, apoE3, or apoE4 bands on gel blotting (Havekes L M et al. (1987) J Lipid Res 28:455-63).
DNA analysis was conducted by genotyping two single nucleotide polymorphisms (SNPs) of the SLCO1B1 gene—388A>G (rs2306283) and 511T>C (rs4149056)—using standard methods (e.g. Taq Man® SNPs genotyping assays by Applied Biosystems, Foster City, Calif.). The custom assay identification numbers for these analyses were C—1901697—20 and C—30633906—10, respectively. Additionally, DNA analysis was also conducted by genotyping one SNP of the LXRA gene, rs12221497, and the custom assay identification number for this analysis was C—30887860—10. The end points were ascertained after PCR amplification was performed using standard methods (e.g. an Applied Biosystems 7900 HT Sequence Detection System). Genotypes with quality scores below the 95% threshold were repeated and 5% blinded replicates for genotype determinations were performed. In addition, a total of 119 subjects (˜2.2% of the sample size) who had the apoE4/2 phenotype were excluded from these analyses, as well as 246 subjects who had missing apoE phenotype. These subjects were excluded because apoE phenotype or genotype can affect statin-induced LDL-C lowering response, as well as CHD risk, in an allele dependent manner. For example, subjects carrying the apoE4 allele having the greatest response in terms of LDL-C lowering and the highest CHD risk, however, apoE2 and apoE4 phenotype have opposite effects in this regard.
Statistical analysis: Observed genotype frequencies were compared with those expected under Hardy-Weinberg equilibrium using a χ2 test. For data analysis, multivariable analysis of covariance (ANCOVA) was performed to detect associations between the lipoprotein levels at baseline as well as changes in response to the treatment with Pravastatin at 6 months and with SLCO1B1 genotypes adjusted for gender, body mass index, age, alcohol, smoking, diabetes, apoE phenotype, and country of origin, since subjects participating in PROSPER were either from Scotland, Ireland, or the Netherlands. […]

[2] = tested on: elderly individuals at risk of vascular disease; experiment: PROSPER study: incidence of CHD death or nonfatal MI on trial; type: in vivo, human; details: for Pravastatin HR, hazards ratio (95% confidence intervals), CHD death or nonfatal MI: Pravastatin group
Description: Statistical analysis: Observed genotype frequencies were compared with those expected under Hardy-Weinberg equilibrium using a χ2 test. For data analysis, multivariable analysis of covariance (ANCOVA) was performed to detect associations between the lipoprotein levels at baseline as well as changes in response to the treatment with Pravastatin at 6 months and with SLCO1B1 genotypes adjusted for gender, body mass index, age, alcohol, smoking, diabetes, apoE phenotype, and country of origin, since subjects participating in PROSPER were either from Scotland, Ireland, or the Netherlands. Prevalence at baseline of myocardial infarction (MI) and all types of vascular disease (history of angina, claudication, MI, stroke, transient ischemic attack, peripheral arterial disease surgery, or amputation for vascular disease more than 6 months before study entry) at baseline, as well as incidence of primary endpoints (CHD death or nonfatal MI or fatal non-fatal stroke), and all cardiovascular events (primary endpoints and coronary artery bypass grafting, coronary angioplasty, and peripheral artery surgery or angioplasty), were compared between carriers of different SLCO1B1 SNP genotypes using multivariable logistic regression analysis in all subjects and stratified by gender and treatment. All analyses were fully adjusted for age, gender, country, history of vascular disease, body mass index, history of diabetes, as well as history of hypertension, alcohol use, current smoking, and apoE phenotype. To evaluate the modifying effects of genotypes and gender on the response to treatment, gene-treatment and gene-gender interaction terms were added to the regression models. Lewontin's D value was calculated to assess the linkage disequilibrium (LD) between the two SNPs of interest (Lewontin R C. The interaction of selection and linkage. II. Optimum models. Genetics 1964; 50:757-82). There was no interaction between these SNPs and also no interaction between these SNPs and apoE genotype. All analyses were performed using SAS/STAT and SAS/Genetics [including proc haplotype procedure] (SAS Version 9.1, SAS Institute Inc., Cary, N.C.). A two-sided p<0.05 was considered statistically significant.

[3] = tested on: elderly individuals at risk of vascular disease; experiment: PROSPER study: adverse events (myalgia, rhabdomyolysis, creatine kinase)
Text: In this randomized study with 5,804 subjects, 2,913 subjects received placebo and 2,891 received Pravastatin (three of whom refused medication). […] This adverse event rate was very similar to the placebo group where 116 subjects discontinued medication because of non-fatal adverse events. […] At the 3 month visit there no subjects that had creatine kinase levels >10 the upper limits of normal.
Study Subjects: The results and the methodology used in the PROspective Study of Pravastatin in the Elderly at Risk (PROSPER) study have been previously described (see e.g., Shepherd J et al. PROspective Study of Pravastatin in the Elderly at Risk. Pravastatin in elderly individuals at risk of vascular disease (PROSPER): a randomized controlled trial. Lancet (2002) 360:1623-30 and Shepherd J et al. The design of a prospective study of Pravastatin in the Elderly at Risk (PROSPER). PROSPER Study Group. PROspective Study of Pravastatin in the Elderly at Risk. Am J Cardiol (1999) 84:1192-97).
In the present study 2,804 men and 3,000 women between the ages of 70 and 82 with pre-existing vascular disease (n=2,404) or at least one of three major vascular risk factors (diabetes n=575, smoking n=1,433, or hypertension n=3,360) were randomized to Pravastatin 40 mg/day (n=2,891) or placebo (n=2,913) and followed up on for 3.2 years, on average. […] This effect translates into an estimated 30% risk reduction in CHD events over 5 years, which is consistent with other statin trials. […] For subjects that were judged to have good compliance (i.e. taking medication more than 75% of the time), these alterations on the lipid levels were even greater: −34% […], +5% (increased HDL-C), and −13% (decreased triglycerides), respectively. […] Lipid levels were similar at onset of the study in subjects randomized to Pravastatin or placebo.

LDL-C [4] = experiment: PROSPER study: lipid (LDL-C, HDL-C, triglyceride) response to Pravastatin 40 mg/day, overall and by SLCO1B1/LXRA genotype; type: in vivo, human; details: mean ± S.D.
[5] = single oral dose of 40 mg, 32 subjects; cited from earlier work
[6] = 16 healthy volunteers, multiple-dose; cited from earlier work
[7] = subjects with good compliance (medication more than 75% of the time)

## CC[C@H](C)C(=O)O[C@H]1C[C@H](O)C=C2C=C[C@H](C)[C@H](CC[C@@H](O)C[C@@H](O)CC(=O)O)[C@H]21 [Pravastatin, pravastatin]
LDL-C [1]; 6 months, LXRA 115 G > A genotype AA
  Adjusted mean percent LDL-cholesterol reduction: −37.4 ± 10.9%
LDL-C [1]; 6 months, LXRA 115 G > A genotype GA
  Adjusted mean percent LDL-cholesterol reduction: −36.4 ± 10.7%
LDL-C [1]; 6 months, LXRA 115 G > A genotype GG
  Adjusted mean percent LDL-cholesterol reduction: −36.6 ± 10.7%
LDL-C [1]; 6 months, SLCO1B1 388 A > G genotype AA
  Adjusted mean percent LDL-cholesterol reduction: −36.7 ± 10.5%
LDL-C [1]; 6 months, SLCO1B1 388 A > G genotype AG
  Adjusted mean percent LDL-cholesterol reduction: −36.6 ± 10.7%
LDL-C [1]; 6 months, SLCO1B1 388 A > G genotype GG
  Adjusted mean percent LDL-cholesterol reduction: −36.2 ± 11.6%
LDL-C [1]; 12 months, LXRA 115 G > A genotype AA
  Adjusted mean percent LDL-cholesterol reduction: −35.3 ± 11.2%
LDL-C [1]; 12 months, LXRA 115 G > A genotype GA
  Adjusted mean percent LDL-cholesterol reduction: −35.1 ± 11.6%
LDL-C [1]; 12 months, LXRA 115 G > A genotype GG
  Adjusted mean percent LDL-cholesterol reduction: −35.5 ± 12.1%
LDL-C [1]; 12 months, SLCO1B1 388 A > G genotype AA
  Adjusted mean percent LDL-cholesterol reduction: −35.9 ± 11.2%
LDL-C [1]; 12 months, SLCO1B1 388 A > G genotype AG
  Adjusted mean percent LDL-cholesterol reduction: −35.3 ± 12.3%
LDL-C [1]; 12 months, SLCO1B1 388 A > G genotype GG
  Adjusted mean percent LDL-cholesterol reduction: −34.3 ± 12.8%
LDL-C [1]; 12 months, SLCO1B1 625 T > C genotype CC
  Adjusted mean percent LDL-cholesterol reduction: −31.8 ± 11.7%
LDL-C [1]; 12 months, SLCO1B1 625 T > C genotype TC
  Adjusted mean percent LDL-cholesterol reduction: −34.6 ± 12.5%
LDL-C [1]; subjects placed on Pravastatin
  HDL-C increase versus baseline: 5%
  triglycerides decrease versus baseline: 12%
LDL-C [1]; [7]
  alteration printed as risk reduction for CHD: −34%
  decreased triglycerides: −13%
  increased HDL-C: +5%
[2]; 388 A > G genotype AA (reference genotype)
  Pravastatin HR, hazards ratio (95% confidence intervals), CHD death or nonfatal MI: 1
[2]; 388 A > G genotype AG versus AA
  Pravastatin HR, hazards ratio (95% confidence intervals), CHD death or nonfatal MI: 1.13
[2]; 388 A > G genotype GG versus AA
  Pravastatin HR, hazards ratio (95% confidence intervals), CHD death or nonfatal MI: 1.12
[2]; 625 T > C genotype CC versus TT
  Pravastatin HR, hazards ratio (95% confidence intervals), CHD death or nonfatal MI: 0.64
[2]; 625 T > C genotype TC versus TT
  Pravastatin HR, hazards ratio (95% confidence intervals), CHD death or nonfatal MI: 0.99
[2]; 625 T > C genotype TT (reference genotype)
  Pravastatin HR, hazards ratio (95% confidence intervals), CHD death or nonfatal MI: 1
[2]; over 5 years, translated from the 3.2 year effect
  estimated risk reduction in CHD events: 30%
[3]; both, human, in vivo, 3.2 years
  reported cases of myalgia: 36 cases
[3]; in vivo
  association of the SLCO1B1 rs4149056 SNP with myalgia: no association
  reported cases of rhabdomyolysis: no reported cases
[3]; of 2,888 subjects started on Pravastatin, 116 in placebo group
  subjects who discontinued medication because of non-fatal adverse events: 107 subjects
LDL-C [4]; 6 months, SLCO1B1 625 T > C genotype CC, Pravastatin 40 mg/day
  Adjusted mean percent LDL-cholesterol reduction: −31.8% and −31.8 ± 12.8%
LDL-C [4]; 6 months, SLCO1B1 625 T > C genotype TC, Pravastatin 40 mg/day
  Adjusted mean percent LDL-cholesterol reduction: −36.0% and −36.0 ± 10.4%
LDL-C [4]; 6 months, SLCO1B1 625 T > C genotype TT, Pravastatin 40 mg/day
  Adjusted mean percent LDL-cholesterol reduction: −37.0% and −37.0 ± 10.8%
LDL-C [4]; 12 months, SLCO1B1 625 T > C genotype TT
  Adjusted mean percent LDL-cholesterol reduction: −35.9 ± 11.8%
[5]
  areas under the curve of pravastatin blood levels, CC versus wildtype TT SLCO1B1 genotype: significantly greater
[6]
  plasma pravastatin levels with SLCO1B1 haplotype as compared to other haplotypes: doubling
